Measured values taken from patent publication US9890171B2, “Aldosterone synthase inhibitors” (Boehringer Ingelheim International GmbH, priority 2014, dated 2018).

Target: aldosterone synthase (CYP11B2) (Macaca fascicularis, UniProt A0A2K5UPL9)
Assay: aldosterone synthase inhibition assay
Type: biochemical, cynomolgus monkey
Conditions: cynomolgus adrenal gland mitochondria, 2 μM corticosterone, aldosterone quantified by mass spectrometry
How it was run: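 Cynomolgus adrenal mitochondria ([…]) used as CYP11B2 source with 2 μM corticosterone in 100 mM potassium phosphate pH 7.4, 1% DMSO; reaction started with 1 mM NADPH, run 60-90 min at 37° C. Aldosterone measured by mass spectrometry; IC50 from 4-parameter logistic fit, no-NADPH blank as 0%.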

Chain of aldosterone synthase (CYP11B2) (A0A2K5UPL9 1-503): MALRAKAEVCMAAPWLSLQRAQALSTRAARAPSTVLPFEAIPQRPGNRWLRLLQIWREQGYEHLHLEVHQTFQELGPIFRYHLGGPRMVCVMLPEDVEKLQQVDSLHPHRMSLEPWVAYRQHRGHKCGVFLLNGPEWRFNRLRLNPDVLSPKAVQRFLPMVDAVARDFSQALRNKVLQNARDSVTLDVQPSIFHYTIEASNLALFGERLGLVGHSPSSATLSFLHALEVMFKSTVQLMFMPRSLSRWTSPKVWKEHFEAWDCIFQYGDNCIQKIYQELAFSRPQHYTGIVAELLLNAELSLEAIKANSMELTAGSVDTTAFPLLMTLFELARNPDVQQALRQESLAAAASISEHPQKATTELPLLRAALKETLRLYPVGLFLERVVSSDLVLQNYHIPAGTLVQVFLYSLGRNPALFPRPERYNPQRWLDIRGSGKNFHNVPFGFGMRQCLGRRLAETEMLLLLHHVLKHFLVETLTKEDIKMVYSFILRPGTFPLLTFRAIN

SMILES | IC50 [nM]
CCS(=O)(=O)NC1COCc2c(-c3cc4c(cnn4C)cc3C)cncc21 (single isomer, unassigned) [Compound 78, Ethanesulfonic acid [8-(1,5-dimethyl-1H-indazol-6-yl)-3,4-dihydro-1H-pyrano[4,3-c]pyridin-4-yl]-amide] | 2800
O=C1CCOc2cc(-c3cncc4c3COCC4O)ccc21 (single isomer, unassigned) [Compound 122, 7-(4-Hydroxy-3,4-dihydro-1H-pyrano[4,3-c]pyridin-8-yl)-chroman-4-one] | 194
Cc1n[nH]c2cc(-c3cncc4c3COCC4O)ccc12 (single isomer, unassigned) [Compound 11, 8-(3-Methyl-1H-indazol-6-yl)-3,4-dihydro-1H-pyrano[4,3-c]pyridin-4-ol] | 690
CC1(O)CCOc2ccc(-c3cncc4c3COCC4O)cc21 (single isomer, unassigned) [Compound 138, 8-(4-Hydroxy-4-methyl-chroman-6-yl)-3,4-dihydro-1H-pyrano[4,3-c]pyridin-4-ol] | 1560
Cc1n[nH]c2cc(-c3cncc4c3COCC4O)ccc12 (single isomer, unassigned) [Compound 13, 8-(3-Methyl-1H-indazol-6-yl)-3,4-dihydro-1H-pyrano[4,3-c]pyridin-4-ol] | 81
CCS(=O)(=O)NC1COCc2c(-c3ccc4cnn(C)c4c3)cncc21 (single isomer, unassigned) [Compound 83, Ethanesulfonic acid [8-(1-methyl-1H-indazol-6-yl)-3,4-dihydro-1H-pyrano[4,3-c]pyridin-4-yl]-amide] | 31.3
CCS(=O)(=O)NC1COCc2c(-c3ccc4c(Cl)n[nH]c4c3)cncc21 (single isomer, unassigned) [Compound 129, Ethanesulfonic acid [8-(3-chloro-1H-indazol-6-yl)-3,4-dihydro-1H-pyrano[4,3-c]pyridin-4-yl]-amide] | 45.9
OC1COCc2c(-c3ccn4ccnc4c3)cncc21 (single isomer, unassigned) [Compound 99, 8-Imidazo[1,2-a]pyridin-7-yl-3,4-dihydro-1H-pyrano[4,3-c]pyridin-4-ol] | 5000
O=C1NCCc2cc(-c3cncc4c3COC3(CC3)C4O)ccc21 (single isomer, unassigned) [Compound 85, 6-[4-hydroxyspiro[1,4-dihydropyrano[4,3-c]pyridine-3,1′-cyclopropane]-8-yl]-3,4-dihydro-2H-isoquinolin-1-one] | 90.9
OC1COCc2c(-c3ccc4c(c3)C(F)(F)CCO4)cncc21 (single isomer, unassigned) [Compound 141, 8-(4,4-Difluoro-chroman-6-yl)-3,4-dihydro-1H-pyrano[4,3-c]pyridin-4-ol] | 339
O=C1NCCc2cc(-c3cncc4c3COC3(CC3)C4O)ccc21 (single isomer, unassigned) [Compound 84, 6-[4-hydroxyspiro[1,4-dihydropyrano[4,3-c]pyridine-3,1′-cyclopropane]-8-yl]-3,4-dihydro-2H-isoquinolin-1-one] | 255
Cn1ncc2ccc(-c3cncc4c3COCC4NC(=O)C3CC3)cc21 (single isomer, unassigned) [Compound 75, Cyclopropanecarboxylic acid [8-(1-methyl-1H-indazol-6-yl)-3,4-dihydro-1H-pyrano[4,3-c]pyridin-4-yl]-amide] | 26.4
OC1COCc2c(-c3ccc4ocnc4c3)cncc21 (single isomer, unassigned) [Compound 53, 8-Benzooxazol-5-yl-3,4-dihydro-1H-pyrano[4,3-c]pyridin-4-ol] | 808
OC1COCc2c(-c3ccc4c(c3)OCCO4)cncc21 (single isomer, unassigned) [Compound 38, 8-(2,3-Dihydro-benzo[1,4]dioxin-6-yl)-3,4-dihydro-1H-pyrano[4,3-c]pyridin-4-ol] | 12
OC1COCc2c(-c3ccc4c(c3)COCCC4(F)F)cncc21 (single isomer, unassigned) [Compound 148, 8-(5,5-Difluoro-1,3,4,5-tetrahydro-benzo[c]oxepin-8-yl)-3,4-dihydro-1H-pyrano[4,3-c]pyridin-4-ol] | 83.7
Cn1ncc2c(C#N)cc(-c3cncc4c3COCC4O)cc21 (single isomer, unassigned) [Compound 106, 6-(4-Hydroxy-3,4-dihydro-1H-pyrano[4,3-c]pyridin-8-yl)-1-methyl-1H-indazole-4-carbonitrile] | 599
CN1CCc2cc(-c3cncc4c3COCC4O)ccc2C1=O (single isomer, unassigned) [Compound 124, 6-(4-Hydroxy-3,4-dihydro-1H-pyrano[4,3-c]pyridin-8-yl)-2-methyl-3,4-dihydro-2H-isoquinolin-1-one] | 1010
Cc1nn(C)c(C)c1-c1cncc2c1COCC2O (single isomer, unassigned) [Compound 39, 8-(1,3,5-Trimethyl-1H-pyrazol-4-yl)-3,4-dihydro-1H-pyrano[4,3-c]pyridin-4-ol] | 437
Cn1ncc2cc(F)c(-c3cncc4c3COCC4O)cc21 (single isomer, unassigned) [Compound 18, 8-(5-Fluoro-1-methyl-1H-indazol-6-yl)-3,4-dihydro-1H-pyrano[4,3-c]pyridin-4-ol] | 20.1
OC1COCc2c(-c3ccc4cn[nH]c4c3)cncc21 (single isomer, unassigned) [Compound 37, 8-(1H-Indazol-6-yl)-3,4-dihydro-1H-pyrano[4,3-c]pyridin-4-ol] | 94.4
Cn1ncc2ccc(-c3cncc4c3COC3(CC3)C4O)cc21 (single isomer, unassigned) [Compound 16, 8-(1-methylindazol-6-yl)spiro[1,4-dihydropyrano[4,3-c]pyridine-3,1′-cyclopropane]-4-ol] | 12.5
Cn1ncc2ccc(-c3cncc4c3COCC4NS(C)(=O)=O)cc21 (single isomer, unassigned) [Compound 80, N-[8-(1-Methyl-1H-indazol-6-yl)-3,4-dihydro-1H-pyrano[4,3-c]pyridin-4-yl]-methanesulfonamide] | 2100
CCS(=O)(=O)NC1COCc2c(-c3ccc4c(c3)C(O)CCO4)cncc21 (single isomer, unassigned) [Compound 133, Ethanesulfonic acid [8-(4-hydroxy-chroman-6-yl)-3,4-dihydro-1H-pyrano[4,3-c]pyridin-4-yl]-amide] | 1470
CCC(=O)NC1COCc2c(-c3ccc4c(cnn4C)c3)cncc21 (single isomer, unassigned) [Compound 73, N-[8-(1-Methyl-1H-indazol-5-yl)-3,4-dihydro-1H-pyrano[4,3-c]pyridin-4-yl]-propionamide] | 34.6
O=C1CCCc2ccc(-c3cncc4c3COCC4O)cc21 (single isomer, unassigned) [Compound 115, 7-(4-Hydroxy-3,4-dihydro-1H-pyrano[4,3-c]pyridin-8-yl)-3,4-dihydro-2H-naphthalen-1-one] | 580

More lines, now with the values ahead:

IC50 [nM] | SMILES
4400 | Cn1ncc2c(C#N)cc(-c3cncc4c3COCC4(C)O)cc21 (single isomer, unassigned) [Compound 174, 6-(4-Hydroxy-4-methyl-3,4-dihydro-1H-pyrano[4,3-c]pyridin-8-yl)-1-methyl-1H-indazole-4-carbonitrile]
19.1 | Cn1nc(F)c2ccc(-c3cncc4c3COCC4(C)O)cc21 (single isomer, unassigned) [Compound 171, 8-(3-Fluoro-1-methyl-1H-indazol-6-yl)-4-methyl-3,4-dihydro-1H-pyrano[4,3-c]pyridin-4-ol]
52 | O=C1CCc2cc(-c3cncc4c3COCC4O)ccc21 (single isomer, unassigned) [Compound 183, 5-(4-Hydroxy-3,4-dihydro-1H-pyrano[4,3-c]pyridin-8-yl)-indan-1-one]
67 | N#CC1CC=C(c2cncc3c2COCC3O)CC1 (single isomer, unassigned) [Compound 186, 4-(4-Hydroxy-3,4-dihydro-1H-pyrano[4,3-c]pyridin-8-yl)-cyclohex-3-enecarbonitrile]
4880 | CC(=O)NC1COCc2c(-c3ccc4c(c3)CCC4=O)cncc21 (single isomer, unassigned) [Compound 151, N-[8-(1-Oxo-indan-5-yl)-3,4-dihydro-1H-pyrano[4,3-c]pyridin-4-yl]-acetamide]
38 | CCC(=O)NC1COCc2c(-c3cc4c(cnn4C)cc3F)cncc21 (single isomer, unassigned) [Compound 193, N-[8-(5-Fluoro-1-methyl-1H-indazol-6-yl)-3,4-dihydro-1H-pyrano[4,3-c]pyridin-4-yl]-propionamide]
26.3 | CC(=O)NC1COCc2c(-c3ccc4oc(=O)ccc4c3)cncc21 (single isomer, unassigned) [Compound 154, N-[8-(2-Oxo-2H-chromen-6-yl)-3,4-dihydro-1H-pyrano[4,3-c]pyridin-4-yl]-acetamide]
44.3 | NC(=O)N1CCCc2cc(-c3cncc4c3COCC4O)cnc21 (single isomer, unassigned) [Compound 163, 6-(4-Hydroxy-3,4-dihydro-1H-pyrano[4,3-c]pyridin-8-yl)-3,4-dihydro-2H-[1,8]naphthyridine-1-carboxylic acid amide]
150 | O=C1CCc2nc(-c3cncc4c3COCC4O)ccc21 (single isomer, unassigned) [Compound 181, 2-(4-Hydroxy-3,4-dihydro-1H-pyrano[4,3-c]pyridin-8-yl)-6,7-dihydro-[1]pyrindin-5-one]
13.9 | Cn1ncc2ccc(-c3cncc4c3COCC4(C)O)cc21 (single isomer, unassigned) [Compound 169, 4-Methyl-8-(1-methyl-1H-indazol-6-yl)-3,4-dihydro-1H-pyrano[4,3-c]pyridin-4-ol]
51.1 | NC(=O)N1CCCc2cc(-c3cncc4c3C(O)COC4)cnc21 (stereo not drawn) [Compound 160, 6-(4-Hydroxy-3,4-dihydro-1H-pyrano[3,4-c]pyridin-5-yl)-3,4-dihydro-2H-[1,8]naphthyridine-1-carboxylic acid amide]
